The values that follow come from PubChem BioAssay (NCI).

The structures appear in SMILES notation.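 Briefly, cells in 96-well plates were exposed to five compound concentrations for 48 h, and endpoints were estimated by linear interpolation. GI50 = concentration required for 50% inhibition of growth. The concentration for full growth arrest is given as TGI.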

What all share (test): growth of human tumour cells (NCI), 48 h
The subject of test [1] is COLO 205 colon.
Test [2] has as its system PC-3 prostate.
The test system of test [3] is MDA-MB-231 breast.
Test [4] has as its system HCT-116 colon.
For test [5], the system named is NCI/ADR-RES ovarian.
Test [6] concerns A549 NSCLC.
The test system of test [7] is HL-60(TB) leukemia.
Test [8] has as its system HCT-15 colon.

Regarding `CC(C)(C)C(=O)c1c(C(F)(F)F)n([O-])c2cc(Cl)c(Cl)cc2[n+]1=O`, the GI50 in test [1] is 683 nM; in test [2] it was 1580 nM; in test [3], 1440 nM; in test [4], 1580 nM; in test [5], 0.567 µM; in test [6] it was 0.952 µM. The GI50 in test [7] is 188 nM; in test [8], 257 nM. The TGI was determined as 1.69 µM in test [1]; 3.03 µM in test [2]; 2.9 µM in test [3]; 2.93 µM in test [4]; 1.37 µM in test [5]; 2.39 µM in test [6]. Besides, the TGI in test [7] came to 0.446 µM; in test [8], 0.652 µM.

Take `C=C1C(=O)O[C@@H]2CC(CO)=C([C@@H](C)CCCO)[C@@H](OC(=O)/C(C)=C\C)[C@H]12`: the TGI in test [1] was 28.7 µM; in test [2], 45.7 µM; in test [3] it was 57.2 µM; in test [4] it was 26.5 µM; in test [5], 75.4 µM; in test [6], more than 71.9 µM. Moreover, the results for the TGI in test [7] and in test [8] were 4.86 µM and 31.3 µM, respectively.

`COc1ccc(/C=C2\COc3ccc(O)c(O)c3C2=O)cc1OC`: the GI50 is 2170 nM in test [1]; 1530 nM in test [2]; 1480 nM in test [3]; 1470 nM in test [4]; 1.7 µM in test [5]; 2.6 µM in test [6]. Further, the GI50 in test [7] is 440 nM; in test [8] it was 488 nM. For the same molecule, the TGI in test [1] was 6.18 µM; in test [2], 6.82 µM; in test [3], 5.55 µM; in test [4] it was 3.61 µM; in test [5] it was 17.4 µM; in test [6], more than 100 µM. The TGI in test [7] stood at 5.29 µM; in test [8] it was 5.73 µM.

`CN(C)CC1C(=O)O[C@H]2[C@H]1CC/C(COC(=O)NCc1ccc(Cn3c(=O)sn(CCCI)c3=O)cc1)=C\CC[C@@]1(C)O[C@@H]21` (stereo partly drawn): the GI50 was 833 nM in test [1]; 251 nM in test [2]; 906 nM in test [3]; 793 nM in test [4]; 10.2 µM in test [5]; 7.17 µM in test [6]. Besides, the GI50 in test [8] was 965 nM. Besides, the TGI in test [1] came to 1.66 µM; in test [2], 7.32 µM; in test [3] it was 1.8 µM; in test [4], 1.6 µM; in test [5] it was 30.1 µM; in test [6], 14.4 µM. Besides, the TGI in test [8] amounted to 2.13 µM.

Regarding `COc1ccc2c(CCCc3ccc(Cl)cc3Cl)c3[n+](cc2c1OC)CCc1cc2c(cc1-3)OCO2`, the GI50 in test [2] is 279 nM; in test [5] it was 7.74 µM; in test [7], 230 nM; in test [8], 1720 nM. Moreover, the TGI worked out at 1.24 µM in test [2], 54.2 µM in test [5], 0.838 µM in test [7] and 3.29 µM in test [8].

As to `Cc1nn(Cc2ccccc2)cc1C(=O)Nc1sc2c(c1C(N)=O)CCC(=O)C2`, the GI50 in test [1] is 1670 nM; in test [2], 752 nM; in test [3], 2000 nM; in test [4] it was 1280 nM; in test [5], 3.36 µM; in test [6], 4.39 µM. Further, the GI50 in test [8] is 1630 nM. Moreover, the TGI in test [1] is 3.76 µM; in test [2], 5.14 µM; in test [3] it was 4.86 µM; in test [4], 4.33 µM; in test [5] it was 10.1 µM; in test [6] it was more than 100 µM. For the same molecule, in test [8], the TGI was determined as 3.72 µM.

On to `CC(=O)CCc1ccc(Oc2c3c(nc4ccccc24)OCC3)cc1`, for which the GI50 in test [1] is more than 100000 nM; in test [2], 82300 nM; in test [3], 52000 nM; in test [4], more than 100000 nM; in test [5], 29.5 µM; in test [6], 11.7 µM. Besides, the GI50 in test [8] is 58800 nM. Besides, the TGI in test [1], in test [2], in test [3], in test [4], in test [5] and in test [6] was more than 100 µM throughout. Also, the TGI in test [8] was more than 100 µM.

As to `COC(=O)C12C34C=CC5(CCC6(C=CC1(CC3)O6)C52C(=O)OC)O4` (stereo not drawn), the TGI in test [1], in test [4], in test [6] and in test [7] was more than 100 µM throughout.

On to `CCn1cc(C(=O)N/N=C/c2cccs2)c(=O)c2cc(F)c(N3CCNC(C)C3)c(F)c21` (stereo not drawn), for which the GI50 in test [1] is 1780 nM; in test [2], 1450 nM; in test [3], 1520 nM; in test [5] it was 1.8 µM; in test [6], 1.8 µM; in test [8], 1470 nM. In addition, the TGI in test [1] came to 3.52 µM; in test [2], 2.84 µM; in test [3] it was 2.85 µM; in test [5], 3.48 µM; in test [6], 3.37 µM; in test [8] it was 2.82 µM.

`COc1cc2c3c(n([C@@H]4CCOC4)c(=O)c2cc1OC)-c1cc2c(cc1C3=O)OCO2`: the GI50 in test [1] was 19.3 nM; in test [5] it was less than 0.01 µM; in test [6], 0.0107 µM; in test [7] it was less than 10 nM. The TGI in test [1], in test [5], in test [6] and in test [7] was more than 100 µM each time.

Turning to `O=C1c2ccn(CCCNC(CO)(CO)CO)c2C(=O)c2c1c(O)c1ccccc1c2O`, the GI50 is 13200 nM in test [1]; 14600 nM in test [2]; 8390 nM in test [3]; 1900 nM in test [4]; 10.7 µM in test [5]; 16.9 µM in test [6]. Also, the GI50 in test [8] was 14200 nM. Further, the TGI in test [1] amounted to 29.4 µM; in test [2], 35.8 µM; in test [3], 25.2 µM; in test [4], 13.9 µM; in test [5], 26.7 µM; in test [6], 36.8 µM. The molecule further had a TGI in test [8] of 28.6 µM.
